{"source": "patent US20220228120A1", "about": "“Cardiomyocyte Compositions and Use Thereof” (UNIVERSITY HEALTH NETWORK, priority 2019, published 2022)", "format_in_all_cases": "cell-based, human", "key": {"[1]": {"tested_on": "HEY2, MYCN, ANF, BMP10 expression", "assay": "RT-qPCR of compact and trabecular markers after 6 days with factors", "details": "factors day 10-16", "description": "(§1) Total RNA from samples was isolated using RNAqueous™-micro Kit including RNase-free DNase treatment (invitrogen). RNA from dissected ventricular and atrial tissue of human fetal hearts was isolated using the TRIzol® method (ThermoFisher) and treated with DNase (Ambion®). Isolated RNA was reverse transcribed into cDNA using oligo (dT) primers and random hexamers and iScript™ Reverse Transcriptase (ThermoFisher). QRT-PCR was performed on an EP Real-Plex MasterCycler® (Eppendorf®) using QuantiFast® SYBR Green PCR kit (QIAGEN). The copy number of each gene relative to the house keeping gene TBP.\nFor these studies, we used our previously published protocol to generate cardiomyocytes (Lee, supra). […] Using this timeframe as an indication of the proliferative stage of ventricular development, between days 10 and 16 of differentiation, we added the small molecule GSK-3 inhibitor CHIR-99021 (“CHIR”; a WNT pathway agonist), or IGF2, or both, to the day 10 cell population (FIG. 1D). As a control, we added neuregulin 1 (NRG) to the cultures as it promotes the development of the trabecular myocardium in the developing heart (see, e.g., Del Monte-Nieto et al., Nature (2018) 557(7705):439-45; and Odiete et al., Circ Res. (2012) 111(10):1376-85). The cells were cultured with these factors for 6 days. The cells were then harvested, counted, and analyzed for expression of compact and trabecular genes by RT-qPCR. […] The addition of both factors promoted the greatest expansion in cell number, resulting in a 2-fold increase. […] It had little effect on HEY2, which was already expressed at reasonable levels within the population. IGF2 signaling had no effect on the expression of these genes. Addition of NRG reduced the expression of HEY2 and increased the expression of ANF, indicative of specification of a trabecular fate."}, "[2]": {"tested_on": "hPSC-derived ventricular cardiomyocytes", "assay": "HEY2/ANF immunostaining of day 16 ventricular population", "details": "day 16 population", "description": "The EBs were dissociated as described above and the cells were plated onto 24 well culture dishes pre-coated with Matrigel™ (25% v/v, BD PharMingen™). Cells were cultured for 2-3 days and were fixed with 4% PFA in PBS for 15 min at room temperature. Cells were permeabilized and blocked with PBS containing 5% donkey serum, 0.1% TritonX™. The following antibodies were used for staining: mouse anti-cardiac isoform of cTNT (ThermoFisher Scientific, 1:200), rabbit anti-human HEY2 (Proteintech, 1:100), mouse anti-human ANF (Abcam, 1:100), rabbit anti-human cTNT (Abcam, 1:200), or rabbit anti-human CD90 (Abcam, 1:200). For detecting unconjugated primary antibodies, the following secondary antibodies were used: donkey anti-mouse IgG-Alexa Fluor™ 488 (ThermoFisher, 1:500), donkey anti-rabbit IgG-Alexa Fluor™ 555 (ThermoFisher, 1:500), donkey anti-rabbit IgG-Alexa488 (ThermoFisher, 1:500), donkey anti-mouse IgG-Alexa Fluor™ 555 (ThermoFisher, 1:500). Detailed antibody information is described in the Key Resources Table. Cells were stained with primary antibodies in staining buffer consisting of PBS with 0.1% TritonX, and 5% donkey serum overnight at 4° C. The stained cells were washed with PBS. […] Stained cells were analyzed using an EVOS Microscope (ThermoFisher) and Zeiss LSM700 confocal microscope (Zeiss)."}, "[3]": {"tested_on": "CD36^+SIRPA^+ compact cardiomyocytes", "assay": "Flow cytometric analyses of CD36 and SIRPA expression", "description": "The EBs were dissociated by incubation in Collagenase type 2 (0.5 mg/ml, Worthington) in HANKs buffer overnight at room temperature followed by TrypLE™ for 5 mins at 37° C. The following antibodies were used for staining: anti-SIRPa-PeCy7 (Biolegend, 1:1000), anti-CD36-FITC (BD PharMingen™, 1:200), anti-LDLR-BV421 (BD PharMingen™, 1:100), anti-cardiac isoform of cTNT (ThermoFisher Scientific, 1:2000), or anti-myosin light chain 2 (Abcam,1:1000). For unconjugated primary antibodies, the following secondary antibodies were used for detection: goat anti-mouse IgG-APC (BD PharMingen™, 1:500), or donkey anti-rabbit IgG-PE (Jackson ImmunoResearch, 1:500). Detailed antibody information is described in the Key Resources Table. […] Stained cells were analyzed using the LSR II Flow cytometer (BD PharMingen™). Data were analyzed using FlowJo™ software (Tree Star).\nTo evaluate the capacity of the day 18 compact cardiomyocytes to undergo FAO, we analyzed them for expression of the fatty acid transporter CD36, which is essential for transporting fatty acid into cells (FIG. 2B). Given that most mature cardiomyocytes in the human heart express CD36, flow cytometric analyses of this transporter would provide rapid quantitative measure of the maturation status of these cells."}, "[4]": {"tested_on": "FAO-related genes", "assay": "RT-qPCR of FAO-related, mitochondrial and maturation genes in day 32 compact cardiomyocytes", "description": "as §1"}, "[5]": {"tested_on": "compact ventricular populations", "assay": "cTNT and Ki67 flow cytometry after 2 days XAV (day 18)", "description": "The EBs were dissociated by incubation in Collagenase type 2 (0.5 mg/ml, Worthington) in HANKs buffer overnight at room temperature followed by TrypLE™ for 5 mins at 37° C. The following antibodies were used for staining: anti-SIRPa-PeCy7 (Biolegend, 1:1000), anti-CD36-FITC (BD PharMingen™, 1:200), anti-LDLR-BV421 (BD PharMingen™, 1:100), anti-cardiac isoform of cTNT (ThermoFisher Scientific, 1:2000), or anti-myosin light chain 2 (Abcam,1:1000). For unconjugated primary antibodies, the following secondary antibodies were used for detection: goat anti-mouse IgG-APC (BD PharMingen™, 1:500), or donkey anti-rabbit IgG-PE (Jackson ImmunoResearch, 1:500). Detailed antibody information is described in the Key Resources Table. For cell-surface marker analyses, cells were stained for 30 min at 4° C. in FACS buffer consisting of PBS with 5% fetal calf serum (FCS) (Wisent) and 0.02% sodium azide. For intracellular staining, cells were fixed for 20 mins at 4° C. with 4% PFA in PBS followed by permeabilization using 90% methanol for 20 mins at 4° C. Cells were washed with PBS containing 0.5% BSA (Sigma) and stained with unconjugated primary antibodies in FACS buffer overnight at 4° C. Stained cells were washed with PBS with 0.5% BSA and stained with secondary antibodies in FACS buffer for 30 mins at 4° C. Stained cells were analyzed using the LSR II Flow cytometer (BD PharMingen™). Data were analyzed using FlowJo™ software (Tree Star).\nThe EBs were dissociated as described above. The following antibodies were used for staining: mouse anti-Ki67 (DAKO, 1:100) and rabbit anti-cardiac isoform of cTNT (ThermoFisher Scientific, 1:500). The following secondary antibodies were used for detection: donkey anti-mouse IgG-APC (BD Pharmigen™, 1:500), or donkey anti-rabbit IgG-PE (Jackson ImmunoResearch, 1:500). Detailed antibody information is described in the Key Resources Table. […] Stained cells were analyzed using the LSR II Flow cytometer (BD PharMingen™). Data were analyzed using FlowJo™ software (Tree Star). […]"}, "[6]": {"tested_on": "hPSC-derived ventricular cardiomyocytes", "assay": "Cardiomyocyte proliferation/expansion, factors added day 10 to day 16", "details": "CHIR 1 μM or IGF2 25 ng/ml", "description": "The EBs were dissociated as described above. The following antibodies were used for staining: mouse anti-Ki67 (DAKO, 1:100) and rabbit anti-cardiac isoform of cTNT (ThermoFisher Scientific, 1:500). The following secondary antibodies were used for detection: donkey anti-mouse IgG-APC (BD Pharmigen™, 1:500), or donkey anti-rabbit IgG-PE (Jackson ImmunoResearch, 1:500). Detailed antibody information is described in the Key Resources Table. Cells were fixed for 20 mins at 4 C with 4% PFA in PBS followed by permeabilization using 90% methanol for 20 mins at 4° C. Cells were washed with PBS containing 0.5% BSA (Sigma) and stained with unconjugated primary antibodies in FACS buffer overnight at 4° C. Stained cells were washed with PBS with 0.5% BSA and stained with secondary antibodies in FACS buffer for 30 mins at 4° C. Stained cells were analyzed using the LSR II Flow cytometer (BD PharMingen™). Data were analyzed using FlowJo™ software (Tree Star). At day 5, the EBs were transferred to StemPro™-34 with rhVEGF (5 ng/ml) for another 5 days and then to DMEM high glucose (Life Technologies) with 0.5 mg/mL human serum albumin (Sigma), ascorbic acid, transferrin, insulin (10 ng/ml, Sigma), CHIR (1 μM, Bio-Techne), and IGF2 (25 ng/ml, Bio-Techne) from day 10 to day 16. […] The cells were then harvested, counted, and analyzed for expression of compact and trabecular genes by RT-qPCR. […]"}}, "data": [{"molecule": "neuregulin 1 [NRG]", "values": [{"measurement": "expression of ANF", "setting": "[1]", "value": "increased"}, {"measurement": "expression of HEY2", "setting": "[1]", "value": "reduced"}, {"measurement": "ANF+ cells by immunostaining", "setting": "[2]", "value": "presence"}, {"measurement": "HEY+ compact cells by immunostaining", "setting": "[2]", "value": "lack"}]}, {"molecule": "CC(C)(Sc1ccc(CCN(CCCCC2CCCCC2)C(=O)NC2CCCCC2)cc1)C(=O)O", "note": "[GW7647]", "values": [{"measurement": "size of CD36+ population detected at day 32", "setting": "[3]; 1 μM added to day 18 CMs", "value": "significant increase"}]}, {"molecule": "CCCCCCCCCCCCCCCC(=O)O", "note": "[palmitate]", "values": [{"measurement": "expression of mitochondrial/electron transport chain genes ATP5A1, COX7A1, CKMT2", "setting": "[4]", "value": "no effect"}, {"measurement": "expression of FAO pathway components CD36, FABP3, CPT1B, MLYCD", "setting": "[4]; vs untreated populations", "value": "no effect"}, {"measurement": "level of ACC2", "setting": "[4]; vs untreated populations", "value": "no effect"}]}, {"molecule": "N[C@@H](Cc1cc(I)c(Oc2ccc(O)c(I)c2)c(I)c1)C(=O)O", "note": "[thyroid hormone (T3), triiodothyronine]", "values": [{"measurement": "effect on CD36 expression among other pathways tested", "setting": "[3]; only observed in the presence of PPARα signaling", "value": "largest effect"}]}, {"molecule": "O=c1[nH]c(-c2ccc(C(F)(F)F)cc2)nc2c1CSCC2", "note": "[XAV, 2-(4-(trifluoromethyl)phenyl)-7,8-dihydro-5H-thiopyrano[4,3-d]pyrimidin-4-ol]", "values": [{"measurement": "proportion of Ki67^+ cells in the population", "setting": "[5]; XAV following the CHIR/IGF2-induced proliferative stage", "value": "significantly reduced"}, {"measurement": "proportion of the non-cardiomyocytes", "setting": "[5]; XAV for 2 days after CHIR/IGF2", "value": "reduction"}]}, {"molecule": "insulin-like growth factor 2 [IGF2]", "values": [{"measurement": "proportion of Ki67^−cTNT^+ cardiomyocytes detected at day 16", "setting": "[6]", "value": "significant increase"}, {"measurement": "expression of ANF", "setting": "[1]", "value": "no effect"}, {"measurement": "expression of BMP10", "setting": "[1]", "value": "no effect"}, {"measurement": "expression of HEY2", "setting": "[1]", "value": "no effect"}, {"measurement": "expression of MYCN", "setting": "[1]", "value": "no effect"}]}, {"molecule": "Cc1c[nH]c(-c2cnc(NCCNc3ccc(C#N)cn3)nc2-c2ccc(Cl)cc2Cl)n1", "note": "[CHIR, 6-((2-((4-(2,4-Dichlorophenyl)-5-(4-methyl-1H-imidazol-2-yl)pyrimidin-2-yl)amino)ethyl)amino)nicotinonitrile]", "values": [{"measurement": "proportion of Ki67^−cTNT^+ cardiomyocytes detected at day 16", "setting": "[6]", "value": "significant increase"}, {"measurement": "expression of ANF", "setting": "[1]", "value": "decrease"}, {"measurement": "expression of BMP10", "setting": "[1]", "value": "decrease"}, {"measurement": "expression of HEY2", "setting": "[1]", "value": "little effect"}, {"measurement": "expression of MYCN", "setting": "[1]", "value": "significant increase"}, {"measurement": "expression of the fatty acid transporter CD36", "setting": "[1]", "value": "reduced"}, {"measurement": "expression of the glucose transporter GLUT1", "setting": "[1]", "value": "increased"}, {"measurement": "proportion of cTNT^+ cells in the population", "setting": "[5]; XAV(−) vs. ventricular control, day 18", "value": "reduction"}]}]}
